The source of these data is patent US20220257610A1, “Enhancing drug activity through accentuated buccal/sublingual administration” (priority 2019, published 2022).

Like-named read-outs stand apart in the source and are kept apart here.

Assay [1] can be described thus: Comparative dosage study, sleep times in humans. The conditions noted are these: much lower dose with adjuvant, compared with oral. It counts as in vivo. An excerpt: The best method for carrying out the invention: Alprazolam and adjuvant are formulated into sublingual tablets/sprays by conventional methods and administered and sleep times recorded for humans as well as animals.

For assay [2] the following is noted: same or similar dose with permeability enhancers, compared with oral. Here is the method:
The clinical trials were conducted in two parts. The first part consisted of the following stages.
Further trials were carried out to determine the duration of action glipizide and adjuvant combination.
To test the efficacy of adjuvant we compared the efficacy of 5 mg of sub-lingual glipizide with adjuvant, with 5 mg of sublingual glipizide without adjuvant. […] Finally tests were carried out to determine whether the adjuvant used participates in receptor binding process. Keeping the amount of glipizide at 5 mg the quantity of adjuvant were doubled.

For the compound `Cc1nnc2n1-c1ccc(Cl)cc1C(c1ccccc1)=NC2` [alprazolam], in assay [1], the increase in effect came to 200%. With `Cc1cnc(C(=O)NCCc2ccc(S(=O)(=O)NC(=O)NC3CCCCC3)cc2)cn1` [glipizide], in assay [2], the increase in effect came to 3200%.
